Among the test systems are Enterococcus faecium; Pseudomonas aeruginosa; Escherichia coli; Staphylococcus aureus; Staphylococcus aureus 1; Pseudomonas aeruginosa 1; Pseudomonas aeruginosa 5; Staphylococcus aureus 4; Pseudomonas aeruginosa 2; Escherichia coli O157.
Common to all, as to test: ≥ marks a high value that may be exact or a test limit, other limits are often not marked, values filed in µg/mL are converted to µM
For assay [1], the system named is Malassezia furfur KCTC 7744.
The subject of assay [2] is Pseudomonas aeruginosa ATCC 27853.
In assay [3] the test system is Staphylococcus aureus ATCC 25923.
In assay [4] the test system is Aspergillus flavus KCTC 1375.
For assay [5], the system named is Candida albicans ATCC 90028.
Assay [6] deals with Escherichia coli O157:H7 ATCC 43895.
Assay [7] concerns Enterococcus faecium ATCC 19434.

Converted amounts (≈) assume the structure as drawn.

One may read the MIC as the smallest concentration in the dilution series that meets the test's criterion for growth inhibition. The low end stands for a more susceptible organism, the high end for a less susceptible organism. For the molecule `CC(C)[C@H](NC(=O)[C@H](Cc1cnc[nH]1)NC(=O)[C@H](C)NC(=O)[C@H](C)NC(=O)[C@H](CCCCN)NC(=O)[C@H](CCCCN)NC(=O)[C@H](Cc1ccccc1)NC(=O)[C@H](Cc1ccccc1)NC(=O)[C@H](CO)NC(=O)CNC(=O)[C@H](Cc1c[nH]c2ccccc12)NC(=O)CN)C(=O)NCC(=O)N[C@@H](CCCCN)C(=O)N[C@@H](Cc1cnc[nH]1)C(=O)N[C@H](C(=O)NCC(=O)N[C@@H](CCCCN)C(=O)N[C@@H](C)C(N)=O)C(C)C` [GWGSFFKKAAHVGKHVGKA], the MIC in assay [1] is at least 40 µM; in the assay with Enterococcus faecium, 28.3 µM (≈ 56.9 µg/mL); in assay [2] it was 20 µM (≈ 40.2 µg/mL); in assay [3], 20 µM (≈ 40.2 µg/mL); in the assay with Pseudomonas aeruginosa, 28.3 µM (≈ 56.9 µg/mL); in assay [4], 28.3 µM (≈ 56.9 µg/mL). The minimal inhibitory concentration (MIC) in [5] was at least 40 µM; in assay [6] it was 20 µM (≈ 40.2 µg/mL); in the assay on Escherichia coli, 28.3 µM (≈ 56.9 µg/mL); in assay [7], 28.3 µM (≈ 56.9 µg/mL); in the assay on Staphylococcus aureus, 14.1 µM (≈ 28.4 µg/mL).
Take `CC[C@H](C)[C@H](NC(=O)[C@H](CC(C)C)NC(=O)[C@H](CCCN=C(N)N)NC(=O)[C@@H](NC(=O)[C@H](C)NC(=O)[C@H](CCCCN)NC(=O)[C@H](CCCN=C(N)N)NC(=O)[C@H](CC(C)C)NC(=O)[C@@H](N)CCCN=C(N)N)C(C)C)C(=O)N[C@@H](CCCCN)C(=O)O` [RLRKAVRLIK]: the MIC came to 5 µM (≈ 6.26 µg/mL) against Enterococcus faecium; 2.5 µM (≈ 3.13 µg/mL) in the assay on Staphylococcus aureus 1; 10 µM (≈ 12.5 µg/mL) in the assay on Pseudomonas aeruginosa; 5 µM (≈ 6.26 µg/mL) in the assay on Pseudomonas aeruginosa 1; 2.5 µM (≈ 3.13 µg/mL) against Pseudomonas aeruginosa 5; 5 µM (≈ 6.26 µg/mL) with Staphylococcus aureus 4. Also, the MIC worked out at 3.54 µM (≈ 4.43 µg/mL) with Pseudomonas aeruginosa 2, 5 µM (≈ 6.26 µg/mL) with Escherichia coli O157 and 14.1 µM (≈ 17.7 µg/mL) with Staphylococcus aureus.
